Each block holds one compound with its values, some of them ahead of it.
Tests used:
Hepatitis C virus = assay: Antiviral activity against HCV 1b infected in human HuH7 cells assessed as inhibition of viral sub-genomic replication by EG(delta-4AB)SEAP reporter protein assay; format: functional, organism-based, Hepacivirus hominis; settings: genotype 1b, Huh-7
[1] = Cytotoxicity against human HuH7 cells; format: cell-based, Huh-7
[2] = Selectivity index, ratio of CC50 for human HuH7 cells to EC50 for HCV 1b; parameters: species or system Huh-7

Structure (SMILES): NC(=S)Nc1cccc(OCCCCCN2CCN(c3ccc(Cl)cc3)C2=O)c1
EC50 (Hepatitis C virus): 280 nM
CC50 [1]: 39000 nM
Ratio CC50/EC50 [2]: 139

Structure (SMILES): NC(=S)Nc1cccc(OCCCCCN2CCN(c3ccc(C4CCCCC4)cc3)C2=O)c1
EC50 (Hepatitis C virus): 290 nM
CC50 [1]: 12000 nM
Ratio CC50/EC50 [2]: 41

Structure (SMILES): NC(=S)Nc1cccc(OCCCCCN2CCCCN(c3ccc(Cl)cc3)C2=O)c1
EC50 (Hepatitis C virus): 250 nM
CC50 [1]: 13000 nM
Ratio CC50/EC50 [2]: 52

Structure (SMILES): NC(=S)Nc1cccc(OCCCCCN2CCN(c3ccc(Oc4ccccc4)cc3)C2=O)c1
EC50 (Hepatitis C virus): 27000 nM
CC50 [1]: > 50000 nM
Ratio CC50/EC50 [2]: >2

Structure (SMILES): NC(=S)Nc1cccc(OCCCCCN2CCCN(c3ccc(Cl)cc3)C2=O)c1
EC50 (Hepatitis C virus): 1500 nM
CC50 [1]: 15000 nM
Ratio CC50/EC50 [2]: 10

Structure (SMILES): NC(=S)Nc1cccc(OCCCCCN2CCN(c3ccccc3-c3ccccc3)C2=O)c1
EC50 (Hepatitis C virus): 396 nM
CC50 [1]: 12000 nM
Ratio CC50/EC50 [2]: 30

Structure (SMILES): Cc1c(NC(N)=S)cccc1OCCCCCNC(=S)Nc1cccc2ccccc12
EC50 (Hepatitis C virus): > 50000 nM
CC50 [1]: > 50000 nM
Ratio CC50/EC50 [2]: >1

Structure (SMILES): NC(=S)Nc1cccc(OCCCCCN2CCN(c3ccccc3-c3ccccc3)C2=S)c1
EC50 (Hepatitis C virus): 234 nM
CC50 [1]: > 50000 nM
Ratio CC50/EC50 [2]: >214

Structure (SMILES): Cc1ccc(OCCCCCNC(=S)Nc2cccc3ccccc23)cc1NC(N)=S
EC50 (Hepatitis C virus): 1030 nM
CC50 [1]: > 50000 nM
Ratio CC50/EC50 [2]: >49

Structure (SMILES): NC(=S)Nc1cccc(OCCCCCNC(=S)Nc2cc(Cl)cc(Cl)c2)c1
EC50 (Hepatitis C virus): 177 nM
CC50 [1]: 18000 nM
Ratio CC50/EC50 [2]: 102

Structure (SMILES): CCCCCCn1c2ccccc2c2cc(NC(=S)NCCCCCCCCOc3cccc(NC(N)=S)c3)ccc21
EC50 (Hepatitis C virus): 36 nM
CC50 [1]: > 50000 nM
Ratio CC50/EC50 [2]: >1389

Structure (SMILES): NC(=S)Nc1cccc(OCCCCCCCCNC(=S)Nc2ccc3c(c2)c2ccccc2n3CCc2ccccc2)c1
EC50 (Hepatitis C virus): 33 nM
CC50 [1]: > 50000 nM
Ratio CC50/EC50 [2]: >1515

Structure (SMILES): Cc1ccc(-n2c3ccccc3c3cc(NC(=S)NCCCCCCCCOc4cccc(NC(N)=S)c4)ccc32)cc1
EC50 (Hepatitis C virus): 31 nM
CC50 [1]: > 50000 nM
Ratio CC50/EC50 [2]: >1612

Structure (SMILES): NC(=S)Nc1cccc(OCCCCCCCCNC(=S)Nc2ccc3c(c2)c2ccccc2n3Cc2ccccc2)c1
EC50 (Hepatitis C virus): 36 nM
CC50 [1]: > 50000 nM
Ratio CC50/EC50 [2]: >1389

Structure (SMILES): Cc1cc(C)cc(-n2c3ccccc3c3cc(NC(=S)NCCCCCCCCOc4cccc(NC(N)=S)c4)ccc32)c1
EC50 (Hepatitis C virus): 44 nM
CC50 [1]: > 50000 nM
Ratio CC50/EC50 [2]: >1136

Structure (SMILES): NC(=S)Nc1cccc(OCCCCCNC(=O)Nc2cccc3ccccc23)c1
EC50 (Hepatitis C virus): 1390 nM
CC50 [1]: > 50000 nM
Ratio CC50/EC50 [2]: >36

Structure (SMILES): NC(=S)Nc1cccc(OCCCCCN2CCN(c3ccc(Cl)cc3)C2=S)c1
EC50 (Hepatitis C virus): 260 nM
CC50 [1]: > 50000 nM
Ratio CC50/EC50 [2]: >192

Structure (SMILES): NC(=S)Nc1cccc(OCCCCCN2CCN(c3cccnc3)C2=O)c1
EC50 (Hepatitis C virus): > 50000 nM
CC50 [1]: > 50000 nM
Ratio CC50/EC50 [2]: >1

Structure (SMILES): NC(=S)Nc1cccc(OCCCCCN2CCN(c3ccc(C4CCCCC4)cc3)C2=S)c1
EC50 (Hepatitis C virus): 167 nM
CC50 [1]: > 50000 nM
Ratio CC50/EC50 [2]: >299

Structure (SMILES): NC(=S)Nc1cccc(OCCCCCN2CCN(c3ccc(Cl)c(Cl)c3)C2=O)c1
EC50 (Hepatitis C virus): 210 nM
CC50 [1]: 13000 nM
Ratio CC50/EC50 [2]: 62

Structure (SMILES): NC(=S)Nc1cccc(OCCCCCN2CCN(c3cccc4ccccc34)C2=O)c1
EC50 (Hepatitis C virus): 570 nM
CC50 [1]: 15000 nM
Ratio CC50/EC50 [2]: 26

Structure (SMILES): NC(=S)Nc1cccc(OCCCCCN2CCN(c3ccc(Cl)c(Cl)c3)C2=S)c1
EC50 (Hepatitis C virus): 200 nM
CC50 [1]: > 50000 nM
Ratio CC50/EC50 [2]: >250

Further lines, with some results ahead:

EC50 (Hepatitis C virus): 48 nM
Structure (SMILES): NC(=S)Nc1cccc(OCCCCCc2ccccc2)c1
CC50 [1]: 22000 nM
Ratio CC50/EC50 [2]: 458

EC50 (Hepatitis C virus): 316 nM
Structure (SMILES): NC(=S)Nc1cccc(OCCCCCCCCNC(=S)Nc2ccc(N3CCOCC3)cc2)c1
CC50 [1]: > 50000 nM
Ratio CC50/EC50 [2]: >158

EC50 (Hepatitis C virus): 96 nM
Structure (SMILES): NC(=S)Nc1cccc(OCCCCCCCCNC(=S)Nc2ccc3c(c2)c2ccccc2n3-c2ccccc2)c1
CC50 [1]: > 50000 nM
Ratio CC50/EC50 [2]: >521

EC50 (Hepatitis C virus): 62 nM
Structure (SMILES): NC(=S)Nc1cccc(OCCCCCCCCNC(=S)Nc2ccc(Cl)cc2)c1
CC50 [1]: 18000 nM
Ratio CC50/EC50 [2]: 290

EC50 (Hepatitis C virus): 71 nM
Structure (SMILES): NC(=S)Nc1cccc(OCCCCCCCCNC(=S)Nc2ccc(C3CCCCC3)cc2)c1
CC50 [1]: > 50000 nM
Ratio CC50/EC50 [2]: >704

EC50 (Hepatitis C virus): 47 nM
Structure (SMILES): NC(=S)Nc1cccc(OCCCCCCCCNC(=S)Nc2ccc(Br)cc2)c1
CC50 [1]: 18000 nM
Ratio CC50/EC50 [2]: 383

EC50 (Hepatitis C virus): 53 nM
Structure (SMILES): NC(=S)Nc1cccc(OCCCCCCCCNC(=S)Nc2ccc3c(c2)C(=O)c2ccccc2-3)c1
CC50 [1]: > 50000 nM
Ratio CC50/EC50 [2]: >943

EC50 (Hepatitis C virus): 80 nM
Structure (SMILES): Cn1c2ccccc2c2cc(NC(=S)NCCCCCCCCOc3cccc(NC(N)=S)c3)ccc21
CC50 [1]: > 50000 nM
Ratio CC50/EC50 [2]: >625

EC50 (Hepatitis C virus): 45 nM
Structure (SMILES): CCCCn1c2ccccc2c2cc(NC(=S)NCCCCCCCCOc3cccc(NC(N)=S)c3)ccc21
CC50 [1]: > 50000 nM
Ratio CC50/EC50 [2]: >1111

EC50 (Hepatitis C virus): 54 nM
Structure (SMILES): CCn1c2ccccc2c2cc(NC(=S)NCCCCCCCCOc3cccc(NC(N)=S)c3)ccc21
CC50 [1]: > 50000 nM
Ratio CC50/EC50 [2]: >926

EC50 (Hepatitis C virus): 88 nM
Structure (SMILES): NC(=S)Nc1cccc(OCCCCCCCNC(=S)Nc2cc(Cl)cc(Cl)c2)c1
CC50 [1]: 20000 nM
Ratio CC50/EC50 [2]: 227

EC50 (Hepatitis C virus): 118 nM
Structure (SMILES): NC(=S)Nc1cccc(OCCCCCCCCNC(=S)Nc2ccc3c(c2)Cc2ccccc2-3)c1
CC50 [1]: 25000 nM
Ratio CC50/EC50 [2]: 212

EC50 (Hepatitis C virus): 48 nM
Structure (SMILES): CCCn1c2ccccc2c2cc(NC(=S)NCCCCCCCCOc3cccc(NC(N)=S)c3)ccc21
CC50 [1]: > 50000 nM
Ratio CC50/EC50 [2]: >1042

EC50 (Hepatitis C virus): 93 nM
Structure (SMILES): NC(=S)Nc1cccc(OCCCCCCCCNC(=S)Nc2cccc(Br)c2)c1
CC50 [1]: 20000 nM
Ratio CC50/EC50 [2]: 215

EC50 (Hepatitis C virus): 34 nM
Structure (SMILES): NC(=S)Nc1cccc(OCCCCCCCCNC(=S)Nc2cc(Cl)cc(Cl)c2)c1
CC50 [1]: 12000 nM
Ratio CC50/EC50 [2]: 353

EC50 (Hepatitis C virus): 148 nM
Structure (SMILES): NC(=S)Nc1cccc(OCCCCCCCCNC(=S)Nc2ccc3[nH]ccc3c2)c1
CC50 [1]: 18000 nM
Ratio CC50/EC50 [2]: 122

EC50 (Hepatitis C virus): 510 nM
Structure (SMILES): NC(=S)Nc1cccc(OCCCCCNC(=S)Nc2ccc(Cl)cc2)c1
CC50 [1]: > 50000 nM
Ratio CC50/EC50 [2]: >98

EC50 (Hepatitis C virus): 109 nM
Structure (SMILES): NC(=S)Nc1cccc(OCCCCCCCCNC(=S)Nc2ccccc2)c1
CC50 [1]: > 50000 nM
Ratio CC50/EC50 [2]: >459

EC50 (Hepatitis C virus): 122 nM
Structure (SMILES): NC(=S)Nc1cccc(OCCCCCCNC(=S)Nc2cc(Cl)cc(Cl)c2)c1
CC50 [1]: 21000 nM
Ratio CC50/EC50 [2]: 172

EC50 (Hepatitis C virus): 450 nM
Structure (SMILES): NC(=S)Nc1cccc(OCCCCCNC(=S)Nc2cccc3ccccc23)c1
CC50 [1]: > 50000 nM
Ratio CC50/EC50 [2]: >111

EC50 (Hepatitis C virus): 131 nM
Structure (SMILES): NC(=S)Nc1cccc(OCCCCCCCCNC(=S)Nc2ccccc2Br)c1
CC50 [1]: 36000 nM
Ratio CC50/EC50 [2]: 275

EC50 (Hepatitis C virus): 60 nM
Structure (SMILES): CC(C)(C)c1ccc(NC(=S)NCCCCCCCCOc2cccc(NC(N)=S)c2)cc1
CC50 [1]: 17000 nM
Ratio CC50/EC50 [2]: 283

EC50 (Hepatitis C virus): 89 nM
Structure (SMILES): NC(=S)Nc1cccc(OCCCCCCCCNC(=S)Nc2ccc3[nH]c4ccccc4c3c2)c1
CC50 [1]: > 50000 nM
Ratio CC50/EC50 [2]: >562

EC50 (Hepatitis C virus): 42 nM
Structure (SMILES): CCCCCn1c2ccccc2c2cc(NC(=S)NCCCCCCCCOc3cccc(NC(N)=S)c3)ccc21
CC50 [1]: > 50000 nM
Ratio CC50/EC50 [2]: >1190

EC50 (Hepatitis C virus): 80 nM
Structure (SMILES): NC(=S)Nc1cccc(OCCCCCCCCNC(=S)Nc2ccc3c(c2)CCC3)c1
CC50 [1]: 34000 nM
Ratio CC50/EC50 [2]: 425
